Test results as given in patent US7452680B2, “MCT1 transporters expressed in blood brain barrier cells” (XenoPort, Inc., priority 2004, dated 2008).

What was measured:
[1] = target: T1, MCT1 (Homo sapiens, UniProt P53985); settings: cited from earlier work
T1 sequence (P53985 1-500): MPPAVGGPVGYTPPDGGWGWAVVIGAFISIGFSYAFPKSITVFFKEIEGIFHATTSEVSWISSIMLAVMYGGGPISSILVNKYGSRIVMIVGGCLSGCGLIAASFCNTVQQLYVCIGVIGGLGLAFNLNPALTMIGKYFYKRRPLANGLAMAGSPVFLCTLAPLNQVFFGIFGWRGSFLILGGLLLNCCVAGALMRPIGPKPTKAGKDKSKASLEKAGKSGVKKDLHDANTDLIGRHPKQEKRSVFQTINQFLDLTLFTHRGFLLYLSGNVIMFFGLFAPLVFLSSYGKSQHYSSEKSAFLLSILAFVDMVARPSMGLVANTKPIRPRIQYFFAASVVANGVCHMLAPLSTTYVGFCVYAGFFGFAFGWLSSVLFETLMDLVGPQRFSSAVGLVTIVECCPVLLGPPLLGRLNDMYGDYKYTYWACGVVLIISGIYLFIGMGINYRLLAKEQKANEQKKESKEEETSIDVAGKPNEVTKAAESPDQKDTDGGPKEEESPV
T1 sequence (P35613 140-385 partner limits assumed): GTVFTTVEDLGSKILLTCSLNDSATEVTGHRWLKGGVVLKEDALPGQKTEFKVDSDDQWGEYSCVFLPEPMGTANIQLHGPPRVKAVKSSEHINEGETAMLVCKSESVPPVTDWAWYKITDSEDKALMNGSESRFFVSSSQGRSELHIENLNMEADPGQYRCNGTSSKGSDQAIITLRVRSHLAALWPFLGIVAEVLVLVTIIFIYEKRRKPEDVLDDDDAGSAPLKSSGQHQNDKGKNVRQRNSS

[2] = target: T2, hMCT1-rCD147 fusion protein (Homo sapiens, UniProt P53985, D490E); assay: Competitive binding and uptake assay, inhibition of 14C-lactate uptake (FIG. 13); assay type: cell-based; design: rCD147 (rat CD147/basigin) fusion partner; expressed in transfected cells; settings: cells expressing the fusion protein vs cells endogenously expressing hMCT1
T2 sequence (P53985 with tags, fused parts or gaps D490E): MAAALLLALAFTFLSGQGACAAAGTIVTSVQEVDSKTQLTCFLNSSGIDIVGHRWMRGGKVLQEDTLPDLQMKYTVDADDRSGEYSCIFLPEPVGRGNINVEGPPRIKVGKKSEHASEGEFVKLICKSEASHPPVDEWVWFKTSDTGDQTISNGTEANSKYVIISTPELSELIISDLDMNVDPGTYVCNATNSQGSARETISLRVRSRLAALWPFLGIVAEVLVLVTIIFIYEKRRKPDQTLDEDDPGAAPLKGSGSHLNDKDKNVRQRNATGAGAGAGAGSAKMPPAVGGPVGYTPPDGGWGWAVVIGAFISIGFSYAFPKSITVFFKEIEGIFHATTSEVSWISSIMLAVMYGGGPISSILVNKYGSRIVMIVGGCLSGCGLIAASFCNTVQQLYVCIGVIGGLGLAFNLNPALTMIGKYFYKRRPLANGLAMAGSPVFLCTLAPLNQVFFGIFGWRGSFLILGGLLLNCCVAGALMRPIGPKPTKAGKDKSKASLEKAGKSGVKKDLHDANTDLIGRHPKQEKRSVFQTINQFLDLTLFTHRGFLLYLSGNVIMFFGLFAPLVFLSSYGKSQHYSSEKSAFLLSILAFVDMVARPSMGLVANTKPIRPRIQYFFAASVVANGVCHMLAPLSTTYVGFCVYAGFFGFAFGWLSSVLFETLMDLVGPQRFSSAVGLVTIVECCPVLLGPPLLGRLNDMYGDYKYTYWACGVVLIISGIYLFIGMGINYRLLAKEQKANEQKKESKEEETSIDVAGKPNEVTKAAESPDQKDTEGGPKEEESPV
Method: To determine whether a compound interacts with the MCT1 transporter, a competition-binding assay was developed. This assay measures how different concentrations of a test compound block the uptake of a radiolabeled substrate such as lactate. The half-maximal inhibitory concentration (IC50) for inhibition of transport of a substrate by a test compound is an indication of the affinity of the test compound for the MCT1 transporter. Competition binding studies were performed as follows. HEK-PEAK cells were plated in 96-well plates at 100,000 cells/well and incubated at 37° C. for 24 hours. Radiolabeled ^14C-lactic acid (˜50,000 cpm/well) was added to each well in the presence and absence of various concentrations of unlabeled lactic acid in duplicate or triplicate. Competition experiments were performed in an MES-based saline buffer adjusted to pH 6.8. Plates were incubated at room temperature for 2 minutes. Excess radiolabeled substrate was removed and cells were washed three times with a 96-well plate washer with cold assay buffer. Scintillation fluid was added to each well, the plates were sealed and counted in a 96-well plate-based scintillation counter. Data were graphed and analyzed using non-linear regression analysis with Prism Software (GraphPad, Inc., San Diego, Calif.). Competition binding in HEK-PEAK cells is illustrated in FIG. 4B.
To confirm the pharmacology of the hMCT1-rCD147 fusion proteins was the same as that of the unmodified version of hMCT1, the hMCT1-rCD147-expressing cells lines were tested in a competitive binding and uptake assay. Eight different MCT1 substrates were tested for their ability to inhibit the uptake of ^14C-lactate into isolated cell lines inducibly or constitutively expressing hMCT1-rCD147 fusion protein and into cells endogenously expressing hMCT1.

[3] = target: T1, MCT1; assay: Inducible uptake by LLCPK-TREx cell line containing pTREx-hMCT1 (FIG. 10); assay type: cell-based; design: expressed in transfected cells; host or cells: LLCPK-TREx cells; settings: vs non-tet treated (un-induced) or parental LLCPK cells; pH 6.8, 2 minutes
Method: FIG. 10 depicts the results of an uptake experiment showing inducible uptake of (A) ^14C-lactate and (B) thiopheneglyoxylic acid by the LLCPK-TREx cell line containing plasmid pTREx-hMCT1. Uptake of ^14C-lactate was measured as follows: radiolabeled ^14C-lactic acid (˜50,000 cpm/well) was added to each well in triplicate. Experiments were performed in an MES-based saline buffer adjusted to pH 6.8. Plates were incubated at room temperature for 2 minutes. Excess radiolabeled substrate was removed and cells were washed three times with a 96-well plate washer with cold assay buffer. Scintillation fluid was added to each well, the plates were sealed and counted in a 96-well plate-based scintillation counter. Uptake of thiopheneglyoxylic acid was measured similarly to ^14C-lactate, except cells were washed and compound extracted with a 50% ethanol solution. Levels of extracted thiopheneglyoxylate were measured using mass spectroscopy as described above. Negative control values were determined by measuring the uptake into non-tet treated (un-induced) or parental LLCPK (constitutive) cells.

[4] = target: T2, hMCT1-rCD147 fusion protein; assay: Uptake of tritiated GHB, cells expressing hMCT1-rCD147 fusion protein (FIG. 14); assay type: cell-based; design: rCD147 (rat CD147/basigin) fusion partner; expressed in transfected cells; host or cells: LLCPK-TREx cells (pTREx-hMCT1-rCD147 inducible, pMO-hMCT1-rCD147 constitutive); settings: inducibly or constitutively expressing cells, compared with uninduced or control cells
Method: (§1) To determine whether […] (GHB) is a substrate for MCT1, an uptake assay was performed using tritiated […].

[5] = target: T1, MCT1; assay: Uptake of tritiated GHB, cells over expressing MCT1 protein (FIG. 14); assay type: cell-based; design: expressed in transfected cells; host or cells: LLCPK-TREx cells; settings: compared with control cells
Method: as §1

[6] = target: PgP (Homo sapiens, UniProt P08183); assay: Cellular transwell monolayer efflux assay, MDCK cells transfected with TREx-PgP (FIG. 8)
Chain of PgP (P08183 whole entry): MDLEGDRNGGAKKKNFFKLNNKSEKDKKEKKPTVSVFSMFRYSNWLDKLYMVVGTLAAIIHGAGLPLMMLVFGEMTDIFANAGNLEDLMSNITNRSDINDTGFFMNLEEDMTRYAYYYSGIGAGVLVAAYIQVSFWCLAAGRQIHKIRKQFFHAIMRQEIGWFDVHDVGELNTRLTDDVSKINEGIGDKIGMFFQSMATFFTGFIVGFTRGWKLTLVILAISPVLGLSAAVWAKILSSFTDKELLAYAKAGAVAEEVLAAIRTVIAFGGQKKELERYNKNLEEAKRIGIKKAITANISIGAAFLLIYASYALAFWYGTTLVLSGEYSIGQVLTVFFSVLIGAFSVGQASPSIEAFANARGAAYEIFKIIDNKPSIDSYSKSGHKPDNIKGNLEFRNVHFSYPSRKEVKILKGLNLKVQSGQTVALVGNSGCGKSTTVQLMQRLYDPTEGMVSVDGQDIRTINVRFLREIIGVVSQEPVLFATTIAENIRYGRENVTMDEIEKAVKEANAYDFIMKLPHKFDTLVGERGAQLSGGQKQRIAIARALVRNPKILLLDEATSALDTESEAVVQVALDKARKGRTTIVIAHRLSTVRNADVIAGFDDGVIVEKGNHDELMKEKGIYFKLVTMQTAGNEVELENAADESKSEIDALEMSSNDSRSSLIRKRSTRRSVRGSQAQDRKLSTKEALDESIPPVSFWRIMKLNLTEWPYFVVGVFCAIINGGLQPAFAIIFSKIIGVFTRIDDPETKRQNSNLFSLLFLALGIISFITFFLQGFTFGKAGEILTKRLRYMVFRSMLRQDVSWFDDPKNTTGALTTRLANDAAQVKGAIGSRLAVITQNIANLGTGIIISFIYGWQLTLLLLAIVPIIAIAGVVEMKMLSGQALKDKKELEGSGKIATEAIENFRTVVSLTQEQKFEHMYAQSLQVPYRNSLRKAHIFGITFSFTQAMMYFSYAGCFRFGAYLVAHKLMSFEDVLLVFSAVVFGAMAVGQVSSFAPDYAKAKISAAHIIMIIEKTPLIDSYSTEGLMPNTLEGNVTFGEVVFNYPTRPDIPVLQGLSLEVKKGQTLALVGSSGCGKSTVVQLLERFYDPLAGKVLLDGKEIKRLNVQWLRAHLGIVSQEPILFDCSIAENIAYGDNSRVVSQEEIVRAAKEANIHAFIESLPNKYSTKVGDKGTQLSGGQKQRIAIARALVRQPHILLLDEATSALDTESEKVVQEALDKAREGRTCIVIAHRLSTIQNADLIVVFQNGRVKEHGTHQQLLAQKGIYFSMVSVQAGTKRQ
Method: A third type of efflux transporter assay is the cellular transwell monolayer efflux assay. […] The cells form a polarized monolayer. The transwell dishes have apical and basolateral chambers that are separated by the filter membrane on which the polarized monolayer is situated. Assays are performed by placing a test compound in either the apical or basolateral chamber, followed by sampling the opposite chamber after a predetermined period of time such as 60-120 minutes and measuring the amount of the test compound. The test compound can be measured by methods such as radiolabel detection or LC-MS-MS analysis. Assays are performed in the presence and absence of an efflux transporter inhibitor or competitor. Efflux transporter inhibitors or competitors increase apical to basolateral transport and decrease basolateral to apical transport of compounds that are efflux transporter substrates. Apparent permeability (Papp) of test compounds is measured. […] Test compounds that generate ratios between 1.5 and 2.0 require additional testing to determine if they are efflux transporter substrates.
MDCK cells transfected with the tetracycline-inducible TREx-PgP expression vector were seeded on polycarbonate filter membranes in transwell dishes and grown for 3-5 days, yielding a polarized monolayer with tight junctions between cells. […] The left set of bars depicts apical to basolateral transport, while the right set of bars depicts basolateral to apical transport.

[7] = target: T1, MCT1; assay: 14C-lactate uptake in Xenopus oocytes injected with MCT1 cRNA (FIG. 2); assay type: cell-based; design: expressed in transfected cells; host or cells: Xenopus oocytes injected with MCT1 cRNA; settings: oocytes expressing MCT1 vs oocytes expressing MCT4 or noninjected control oocytes
[8] = target: T1, MCT1; assay: 14C-lactate uptake assay in HEK-TREx cells transfected with tet-MCT1 inducible construct; assay type: cell-based; design: expressed in transfected cells; settings: tet-induced vs non-induced
Method: Human MCT1 (hMCT1) is expressed at high levels in most mammalian cell lines. hMCT1 is a high capacity transporter, so low levels of hMCT1 expression may result in significant substrate transport. To control the level of hMCT expression, an inducible tet promoter-hMCT1 expression construct was prepared using the Gateway plasmid cloning system following manufacturers instructions (Invitrogen). The tet-MCT1 inducible construct was transfected into HEK-TREx cells using Fugene transfection following manufacturers instructions (Roche Biosciences). When the transfected cells were tested in an uptake assay, the amount of tetracycline-inducible MCT1 -mediated transport of ^14C-lactate was about 20% higher than the level of endogenous uptake seen in non-induced cells. The addition of an excess of unlabeled lactate competed with the uptake of ^14C-lactate.

[9] = 2.5 nM 3H-vinblastine, in the presence of 250 μM verapamil

| Compound | Reported Affinity for MCT1 [1] | affinity for the MCT1-rCD147 fusion protein compared with hMCT1 alone [2] | further results |
| --- | --- | --- | --- |
| O=C(O)C(=O)c1cccs1 [2-Thiophene glyoxylate] | 3 mM | higher affinity | MCT1 substrate uptake upon induction with tetracycline [3]: significant increase |
| CCCC(=O)O [Butyric Acid] | 8 mM | – | – |
| CC1(C)S[C@@H]2[C@H](NC(=O)C(C(=O)Oc3ccc4c(c3)CCC4)c3ccccc3)C(=O)N2[C@H]1C(=O)O (stereo partly drawn) [Carindicillin] | >5 mM | – | – |
| CC(C)C[C@H](O)C(=O)O [Compound 2, L-alpha-hydroxy-isocaproic acid] | – | higher affinity | – |
| O=C(O)c1ccccc1 [Compound 5, benzoic acid] | – | higher affinity | – |
| O=C(O)Cc1ccccc1 [Compound 8, phenylacetic acid] | – | higher affinity | – |
| CCC(O)C(=O)O (stereo not drawn) [GHB, α-hydroxybutyrate] | – | – | uptake of labeled GHB [4]: increased uptake; uptake of labeled GHB [5]: increased uptake |
| CC(O)C(=O)O (stereo not drawn) [Lactic Acid, lactic acid] | 2 mM | higher affinity | – |
| O=C(O)c1cccnc1 [Nicotinic Acid, nicotinic acid] | 4 mM | higher affinity | – |
| O=C(CCc1ccc(O)cc1)c1c(O)cc(O)cc1O [Phloretin] | 0.2 mM | – | – |
| CC(=O)C(=O)O [Pyruvic Acid] | 1 mM | – | – |
| O=C(O)c1ccccc1O [Salicylic Acid] | >5 mM | – | – |
| O=C(O)c1cc(/N=N/c2ccc(S(=O)(=O)Nc3ccccn3)cc2)ccc1O [Sulfasalazine] | 0.15 mM | – | – |
| CC[C@]1(O)C[C@@H]2CN(CCc3c([nH]c4ccccc34)[C@@](C(=O)OC)(c3cc4c(cc3OC)N(C)[C@H]3[C@@](O)(C(=O)OC)[C@H](OC(C)=O)[C@]5(CC)C=CCN6CC[C@]43[C@@H]65)C2)C1 [^3H-vinblastine] | – | – | Apical to basolateral transport [6, 9]: strongly increased; basolateral to apical transport [6, 9]: strongly decreased; efflux transporter substrate status ([6]; conclusion from transport with and without verapamil): substrate of PgP |
| ^14C-lactic acid [^14C-lactate] | – | – | 14C-lactate uptake [7]: higher levels; tetracycline-inducible MCT1-mediated transport, higher than endogenous uptake in non-induced cells [8]: about 20%; MCT1 substrate uptake upon induction with tetracycline [3]: significant increase |
